# Experimental data published in PMC6838674, “Apelin-36-[L28A] and Apelin-36-[L28C(30kDa-PEG)] peptides that improve diet induced obesity are G protein biased ligands at the apelin receptor” (Peptides, 2019).
# Ends that are not written are not given here.
# Key:
# apelin receptor [1] = molecular target: T1, apelin receptor (Homo sapiens, UniProt P35414); test: Inhibition of forskolin-induced cAMP accumulation assay (DiscoverX); format: cell-based; set-up: host or cells: CHO-K1; details: for cAMP Assay Fold change: fold change in potency relative to apelin-36; for cAMP Assay RE (relative effectiveness) / cAMP Assay ΔlogR: operational model, compared to apelin-36
# T1 sequence (P35414 1-380): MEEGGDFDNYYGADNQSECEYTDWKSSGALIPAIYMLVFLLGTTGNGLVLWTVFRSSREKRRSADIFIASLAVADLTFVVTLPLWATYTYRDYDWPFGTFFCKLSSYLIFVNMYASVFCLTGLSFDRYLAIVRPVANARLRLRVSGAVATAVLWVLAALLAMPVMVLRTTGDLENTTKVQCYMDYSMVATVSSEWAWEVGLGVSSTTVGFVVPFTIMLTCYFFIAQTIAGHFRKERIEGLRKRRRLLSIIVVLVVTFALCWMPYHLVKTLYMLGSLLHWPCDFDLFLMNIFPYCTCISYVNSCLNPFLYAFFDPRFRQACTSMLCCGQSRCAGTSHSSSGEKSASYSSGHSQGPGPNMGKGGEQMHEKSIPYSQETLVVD
# Experimental: Cell-based cAMP assay were performed as previously described. Briefly, Chinese Hamster Ovary cells (CHO-K1) cells artificially expressing the human apelin receptor were seeded in Cell Plating media into 96-well plates and incubated for 24 h at 37 °C in 5% CO2. […] Cells were subsequently incubated with cAMP Detection Reagent comprising cAMP Lysis Buffer, Substrate Reagent 1, Substrate Reagent 2 and cAMP Solution D for 1 h at room temperature followed by 3 h incubation with cAMP Reagent A at room temperature and chemiluminescence reading (LumiLITE™ Microplate Reader, DiscoverX). Responses were fitted to a 4-parameter logistic equation in GraphPad Prism 7 (La Jolla, CA, USA) and values of potency, pD2 (-log10 EC50, where EC50 is the concentration producing half maximal response) determined. Data were expressed as percentage inhibition of forskolin-stimulated cAMP production.
# (§1) Data were expressed as mean ± SEM. Experiments were performed in triplicates or duplicates and n-values were expressed as number of independent experiments. Potencies of analogues in cell-based assays were compared to native apelin-36 using a one-way ANOVA with Dunnett’s posthoc test in GraphPad Prism 7. A P value < 0.05 was considered statistically significant. Binding affinities in both species were compared using Student’s t-test in Graphpad Prism as described above. Bias calculations were performed as previously described using the operational model for bias, to obtain values for relative effectiveness of the apelin-36 synthetic analogues compared to apelin-36 within each cell-based assay. Bias factors were calculated to compare the relative activities of the analogues between the different pathways – β-arrestin (G protein independent) and cAMP (G protein dependent).
# apelin receptor [2] = molecular target: T1, apelin receptor; test: β-Arrestin recruitment assay (DiscoverX AGTRL1); format: cell-based; set-up: host or cells: CHO-K1; details: for EC50 / β-Arrestin Assay pD2±SEM: CHO-K1 cells expressing human apelin receptor, 90 min, 37 °C, mean ± SEM, SEM; for EC50 / β-Arrestin Assay pD2±SEM / β-Arrestin Assay ΔlogR: n = 3-4 independent experiments; for EC50: read-out: β-Arrestin Assay pD2±SEM (converted); for β-Arrestin Assay Fold change: fold change in potency relative to apelin-36; for β-Arrestin Assay RE (relative effectiveness) / β-Arrestin Assay ΔlogR: operational model, compared to apelin-36
# Experimental: Experiments were performed using a β-arrestin GPCR Assay (AGTRL1) (DiscoverX, Lot No.: 16L0902) according to methods previously described. CHO-K1 cells artificially expressing the human apelin receptor were seeded in Cell Plating media into 96-well plates and incubated for 48 h at 37 °C in 5% CO2. […] Negative controls were defined with equal volumes of drug solvent (water). The resulting chemiluminescent signal was measured using a LumiLITE™ Microplate Reader (DiscoverX, Fremont, CA). Responses, measured in relative light units, were fitted with a 4-parameter logistic equation in GraphPad Prism 7 (La Jolla, CA, USA) and values of pD2 and maximum response (EMax) were calculated for each compound.
# as §1
# apelin receptor [3] = molecular target: T1, apelin receptor; test: Radioligand competition binding, human left ventricle homogenate; set-up: experiments using native rat and human receptor; from tissue; host or cells: human left ventricle from explanted hearts of dilated cardiomyopathy patients; details: [125I]apelin-13 0.1 nM, 90 min, competitor 50 pM-100 μM, mean ± SEM, n = 3 replicates per concentration; for Ki: human heart homogenate 1.5 mg/ml
# Text: Samples of human left ventricle were obtained with informed consent and ethical approval (05/Q104/142) via the Papworth Hospital Research Tissue Bank (08/H0304/56) from the explanted hearts of five dilated cardiomyopathy patients (4 males and 1 female, aged 38–55 years) undergoing transplantation. Studies conformed to the principles outlined in the declaration of Helsinki. All animal research was regulated under the Animals (Scientific Procedures) Act 1986 Amendment Regulations 2012 following ethical review by the University of Cambridge Animal Welfare and Ethical Review Body (AWERB). Adult female and male Sprague Dawley rats (n = 14; aged 7–10 weeks) were sacrificed using overdose of CO2 and cervical dislocation before heart tissue was removed and frozen on dry ice. Hearts were pooled and 2 g tissue transferred into a centrifuge tube (50 ml) containing 20 ml homogenisation buffer (50 mM Tris, 5 mM MgCl2, 5 mM EDTA, 1 mM EGTA at pH 7.4 with protease inhibitor cocktail) on ice. The tissue was homogenised on ice using a polytron probe with 2–3 × 20 s bursts and centrifuged at 3000 rpm for 2 min at 4 °C. The supernatant was further centrifuged at 18,500 rpm for 30 min at 4 °C. The resulting pellet was resuspended in 5 ml homogenisation buffer containing protease inhibitor cocktail and centrifuged at 18,500 rpm for 30 min at 4 °C twice. Final pellets were then resuspended in 10 ml HEPES buffer (50 mM HEPES, pH 7.4) and protein concentration determined. Samples were stored at −70 °C until required.
# Competition binding experiments were performed using pooled human homogenised left ventricle (HLV, 1.5 mg/ml) and pooled rat heart homogenates (1.5 mg/ml) as previously described. […] (50 pM-100 μM). […] The samples were then re-centrifuged to collect protein pellets before bound radioactivity in these pellets were counted using Packard Cobra II Auto Gamma Counter (Packard). Data were analysed with Graphpad Prism 7 (Graphpad Software, Inc. La Jolla, CA), using the One-site Fit Ki equation.
# apelin receptor [4] = molecular target: T1, apelin receptor; test: Bias analysis, cAMP vs β-arrestin (operational model for bias); format: cell-based; set-up: host or cells: CHO-K1; details: for cAMP vs β-arrestin Assay Bias factor: G protein (cAMP) over β-arrestin; for cAMP vs β-arrestin Assay Bias factor / cAMP vs β-arrestin Assay ΔΔlogR ± SEM: reference ligand apelin-36; for cAMP vs β-arrestin Assay ΔΔlogR ± SEM: difference between ΔlogR in cAMP and β-arrestin pathways
# Experimental: as §1, with “A P value < 0.05 was considered statistically significant.” left out, “Bias calculations were performed as previously described using the operational model for bias, to obtain values for relative effectiveness of the apelin-36 synthetic analogues compared to apelin-36 within each cell-based assay.” left out
# apelin receptor [5] = molecular target: T2, apelin receptor (Rattus norvegicus, UniProt Q9JHG3); test: Radioligand competition binding, rat heart homogenate; details: [125I]apelin-13 0.1 nM, 90 min, competitor 50 pM-100 μM, mean ± SEM, n = 3 replicates per concentration
# T2 construct: experiments using native rat and human receptor; from tissue; host or cells: pooled hearts of Sprague Dawley rats
# T2 sequence (Q9JHG3 1-377): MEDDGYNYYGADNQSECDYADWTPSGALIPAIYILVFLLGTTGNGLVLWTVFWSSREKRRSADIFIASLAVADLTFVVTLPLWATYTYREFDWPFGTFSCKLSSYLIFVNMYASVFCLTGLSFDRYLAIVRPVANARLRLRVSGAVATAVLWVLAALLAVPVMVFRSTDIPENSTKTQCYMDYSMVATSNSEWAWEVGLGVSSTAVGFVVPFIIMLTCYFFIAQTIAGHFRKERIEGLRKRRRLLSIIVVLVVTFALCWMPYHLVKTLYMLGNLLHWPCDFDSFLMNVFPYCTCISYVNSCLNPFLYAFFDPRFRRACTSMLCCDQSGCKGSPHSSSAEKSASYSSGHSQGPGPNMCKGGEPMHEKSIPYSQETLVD
# Text: Samples of human left ventricle were obtained with informed consent and ethical approval (05/Q104/142) via the Papworth Hospital Research Tissue Bank (08/H0304/56) from the explanted hearts of five dilated cardiomyopathy patients (4 males and 1 female, aged 38–55 years) undergoing transplantation. Studies conformed to the principles outlined in the declaration of Helsinki. All animal research was regulated under the Animals (Scientific Procedures) Act 1986 Amendment Regulations 2012 following ethical review by the University of Cambridge Animal Welfare and Ethical Review Body (AWERB). Adult female and male Sprague Dawley rats (n = 14; aged 7–10 weeks) were sacrificed using overdose of CO2 and cervical dislocation before heart tissue was removed and frozen on dry ice. […] Final pellets were then resuspended in 10 ml HEPES buffer (50 mM HEPES, pH 7.4) and protein concentration determined. […]
# Competition binding experiments were performed using pooled human homogenised left ventricle (HLV, 1.5 mg/ml) and pooled rat heart homogenates (1.5 mg/ml) as previously described. […] The samples were then re-centrifuged to collect protein pellets before bound radioactivity in these pellets were counted using Packard Cobra II Auto Gamma Counter (Packard). Data were analysed with Graphpad Prism 7 (Graphpad Software, Inc. La Jolla, CA), using the One-site Fit Ki equation.
# apelin receptor [6] = test system: apelin receptor; set-up: method as in earlier work; details: ref 20 (Galon-Tilleman et al.), cited from earlier work
# [7] = CHO-K1 cells expressing human apelin receptor, 15 μM forskolin, 30 min, 37 °C, n = 3-4 independent experiments, read-out: cAMP Assay EC50
# [8] = n = 3-4 independent experiments
# [9] = CHO-K1 cells expressing human apelin receptor, 15 μM forskolin, 30 min, 37 °C, mean ± SEM, n = 3-4 independent experiments, SEM, read-out: cAMP Assay pD2±SEM (converted)
substance,measurement,setting,value
LVQPRGSRNGPGPWQGGRRKFRRQRPRASHKGPMPF [Apelin-36-[L28A]],EC50,apelin receptor [1]; [7],13.1 nM
same,EC50,apelin receptor [2],37.2 nM
same,Ki,apelin receptor [3],3.02 nM
[40kDa-PEG]-Apelin-36: N-terminal PEGylated (40kDa) apelin-36 (LVQPRGSRNGPGPWQGGRRKFRRQRPRLSHKGPMPF),cAMP Assay pD2±SEM,"apelin receptor [1]; CHO-K1 cells expressing human apelin receptor, 15 μM forskolin, 30 min, 37 °C, mean ± SEM, n = 3-4 independent experiments, SEM",8.69 ± 0.22
same,β-Arrestin Assay pD2±SEM,apelin receptor [2],8.71 ± 0.15
[40kDa-PEG]-Apelin-36: N-terminal PEGylated (40kDa) apelin-36,cAMP Assay Fold change,apelin receptor [1],2 fold
same,cAMP Assay RE (relative effectiveness),apelin receptor [1],1.20
same,cAMP Assay ΔlogR,apelin receptor [1]; [8],0.08 ± 0.40
same,cAMP vs β-arrestin Assay Bias factor,apelin receptor [4],5
same,cAMP vs β-arrestin Assay ΔΔlogR ± SEM,apelin receptor [4],0.67 ± 0.43
same,β-Arrestin Assay Fold change,apelin receptor [2],3 fold
same,β-Arrestin Assay RE (relative effectiveness),apelin receptor [2],0.26
same,β-Arrestin Assay ΔlogR,apelin receptor [2],−0.59 ± 0.16
LVQPRGSRNGPGPWQGGRRKFRRQRPRLSHKGPMPF [Apelin-36],Ki,apelin receptor [5],0.0589 nM
same,EC50,apelin receptor [1]; [9],0.912 nM
same,EC50,apelin receptor [2],0.676 nM
same,Ki,apelin receptor [3],0.0525 nM
"Apelin-36-[L28C(30kDa-PEG)]: apelin-36 with leucine-28 to cysteine substitution, cysteine-28 PEGylated (30kDa)",cAMP Assay Fold change,apelin receptor [1],104 fold
same,cAMP Assay RE (relative effectiveness),apelin receptor [1],0.01
same,cAMP Assay ΔlogR,apelin receptor [1]; [8],−1.95 ± 0.31
same,fold less potent / less active at apelin receptor compared to apelin-36,apelin receptor [6]; β-arrestin activation,"10,000 fold"
same,fold more potent in the cAMP assay compared to the β-arrestin assay,apelin receptor [4]; CHO-K1 cells expressing human apelin receptor,~10 fold
same,cAMP vs β-arrestin Assay Bias factor,apelin receptor [4],58
same,cAMP vs β-arrestin Assay ΔΔlogR ± SEM,apelin receptor [4],1.76 ± 0.33
same,β-Arrestin Assay Fold change,apelin receptor [2]; listed as Apelin-36-[L28C (30kDa-PEG)],1324 fold
same,β-Arrestin Assay Fold change,apelin receptor [2]; listed as apelin-36-[L28C(30kDa-PEG)],1400 fold
same,β-Arrestin Assay RE (relative effectiveness),apelin receptor [2],0.0002
same,β-Arrestin Assay ΔlogR,apelin receptor [2],−3.71 ± 0.12
LVQPRGSRNGPGPWQGGRRKFRRQRPRLSHKGPMPA [Apelin-36-[F36A]],EC50,apelin receptor [1]; [9],1.26 nM
same,EC50,apelin receptor [2],8.13 nM
Apelin-13 [reference compound],agonist character at apelin receptor (comment),apelin receptor [6]; comment in Table 1,QRPRLSHKGPMPF (full agonist)
"Apelin-36-[L28C(30kDa-PEG)]: apelin-36 with leucine-28 to cysteine substitution, cysteine-28 PEGylated (30kDa) (LVQPRGSRNGPGPWQGGRRKFRRQRPRCSHKGPMPF)",pKi,apelin receptor [5],8.06 ± 0.37
same,EC50,apelin receptor [1]; [7],95.3 nM
same,β-Arrestin Assay pD2±SEM,apelin receptor [2],6.05 ± 0.06
same,pKi,apelin receptor [3]; human heart homogenate […],8.00 ± 0.05
LVQPRGSRNGPGAWQGGRRKFRRQRPRASHKGPMPF [Apelin-36-[A13 A28]],EC50,apelin receptor [1]; [9],7.59 nM
same,EC50,apelin receptor [2],151 nM
